This is an account of results in patent US20240270748A1 (Merck Patent GmbH, priority 2021, published 2024).

Broadly, the IC50 is the concentration at which inhibition is half-maximal.

Counter-ions that a name gives are not always drawn. A value given as a limit tells only on which side of the number the result lay.

This assay has as its system YAP-TEAD interaction. The experiment in a line: SK-HEP-1 reporter assay (8xTEAD responsive elements driving NanoLuc luciferase). Conditions: Homo sapiens, SK-HEP1, SK-HEP-1 reporter assay. Type of assay: cell-based. Here is the method:
To identify inhibitors of YAP-TEAD interaction, 8×TEAD responsive elements driving the NanoLuc® luciferase gene were stably integrated into SK-HEP-1 cells (ECACC #: 91091816).
For the assay, cells were treated in duplicates with the test compounds in a 10-point dose, with the top concentration starting at 30 μM (final concentration in assay). After a 24 hour incubation at 37° C., 95% rH, and 5% CO2, a luciferase substrate/lysis reagent mix (NanoGlo™, Promega) was added to the cells, allowing the quantification of cellular luciferase activity.
Cell Media: The cells were cultured in the following media: MEM, +10% FBS, +1× GlutaMAX, +1 mM Sodium-Pyruvate, +100 μM Non-essential amino acids, +0.1 mg/ml Hygromycin. The media used for the assay was: MEM (w/o Phenol Red), +10% FBS, +1× GlutaMAX, +1 mM Sodium-Pyruvate, +100 μM Non-essential amino acids, +0.5% Pen/Strep
Reagents: The reagents used are listed below:
Cell culture: The cells were examined using an inverted microscope to check for health and cell density. To dissociate adherent cells, the monolayer of cells was washed once with pre-warmed PBS. After removing the PBS, 3 ml pre-warmed Accutase® was added to a F75 flask, dispersed evenly and the flask was allowed to sit in incubator for ˜4-5 minutes.
When a single cell suspension was obtained, 7 ml of prewarmed growth media was added and resuspended with the cells. The cell suspension was transferred to a sterile 15 ml conical centrifuge tube, and spun for 5 min at 300×g, RT. The supernatant was discarded and the pellet was resuspended in 10 ml of pre-warmed growth media.
The total cell count was determined, and 20 μl of the desired cell number was added to each well of a 384 well plate using a Multidrop Combi. The plates were then incubated for 24 hours at 37° C., 95% rH, and 5% C02.
Compound treatment: 24 hours after seeding, the cells were treated with compounds.
A 1:333 dilution of compounds, diluted in DMSO, was made to get a final concentration of 0.3% DMSO per well. To transfer the compounds to the assay plate, […] was shot from Labcyte low dead volume plates to the cell plates containing 20 μl media/well with the ECHO 555 liquid handling system.
After treatment, the cells were fed with 20 μl fresh pre-warmed assay media using a Multidrop combi.
The assay plates were then incubated for another 24 h at 37° C., 95% rH, and 5% CO2.
Luciferase readout: 24 h after treatment, the plates were taken out of the incubator and were allowed to equilibrate to RT. 30 μl of NanoGlo® reagent was added to the plates in the dark. Plates were shaken for 20 min on a Teleshake (˜1500 rpm) in the dark. The luminescence was then measured using an EnVision microplate reader. The IC50 values were generated using Genedata Screener®.
In general terms: In a reporter assay the amount or activity of a reporter protein is the signal.

Where [1] appears, read: n.d. = value not detectable below threshold given in parentheses, ND = not determinable within the entire range.

For the compound `Cn1cc2c3cc(C(N)=O)cnc3n(-c3ccc(C(F)(F)F)cc3)c2n1` [Example C118, 4-methyl-7-[4-(trifluoromethyl)phenyl]-4,5,7,9-tetraazatricyclo[6.4.0.0^2,6]dodeca-1(8),2,5,9,11-pentaene-11-carboxamide], the 50% inhibitory concentration (IC50) (class symbols) was in the range of 0.1 to 10 µM.
Turning to `CC(NC(=O)c1ccc2c(c1)c1cn(C)nc1n2-c1ccc(C(F)(F)F)cc1)c1cccc(NC(=O)OC(C)(C)C)n1` (stereo not drawn) [Example C165, tert-butyl N-{6-[1-({2-methyl-8-[4-(trifluoromethyl)phenyl]-2H,8H-pyrazolo[3,4-b]indol-5-yl}formamido)ethyl]pyridin-2-yl}carbamate], the IC50 (class symbols) is 0.1 to 10 µM.
`Cn1nc2c3cc(C(=O)N=[S@@](=O)(CCO)Cc4ccncc4)ccc3n(-c3ccc(C(F)(F)F)cc3)c2n1` (single isomer, unassigned) [Example C266] registered a half-maximal inhibitory concentration (IC50) (class symbols) of 0.1 to 10 µM.
In turn, `Cn1cc2c3cc(C4CC(F)(F)C(=O)N4)ccc3n(-c3ccc(C(F)(F)F)cc3)c2n1` (stereo not drawn) [Example C275, 3,3-difluoro-5-{2-methyl-8-[4-(trifluoromethyl)phenyl]-2H,8H-pyrazolo[3,4-b]indol-5-yl}pyrrolidin-2-one] displayed an IC50 (class symbols) of 0.01 to 0.1 µM.
Take `Cc1snc2c1c1cc(C(=O)NC[C@H](O)C(F)(F)F)ccc1n2-c1ccc(C(F)(F)F)cc1` [Example C55, 3-methyl-N-[(2S)-3,3,3-trifluoro-2-hydroxypropyl]-8-[4-(trifluoro-methyl)phenyl]-8H-[1,2]thiazolo[3,4-b]indole-5-carboxamide]: the IC50 (class symbols) was 0.1 to 10 µM.
With `Cn1cc2c(n1)c1cc(S(=O)(=O)N3C[C@H](O)C[C@@H]3c3ccccc3)ccc1n2-c1ccc(C(F)(F)F)cc1` (single isomer, unassigned) [Example C40], the IC50 under setting [1] is above 30 µM.
Under “class symbols”, `Cn1cc2c(n1)c1cc(S(=O)(=O)N3CCC[C@H]3c3cncnc3)ccc1n2-c1ccc(C(F)(F)F)cc1` (single isomer, unassigned) [Example C68] showed an IC50 of 0.1 to 10 µM.
Turning to `COCCNC(=O)c1ccc2c(n1)c1cn(C)nc1n2-c1ccc(C(F)(F)F)cc1` [Example C112, N-(2-methoxyethyl)-4-methyl-7-[4-(trifluoromethyl)phenyl]-4,5,7,12-tetraazatricyclo [6.4.0.0^2,6]dodeca-1(8),2,5,9,11-pentaene-11-carboxamide], the concentration for half-maximal inhibition (IC50) (class symbols) was 0.1 to 10 µM.
Compound `CC(N)CS(C)(=O)=NC(=O)c1ccc2c(c1)c1cn(C)nc1n2-c1ccc(C(F)(F)F)cc1` (stereo not drawn) [Example C145, N-[(2-aminopropyl)(methyl)oxo-λ^6-sulfanylidene]-2-methyl-8-[4-(trifluoromethyl)phenyl]-2H,8H-pyrazolo[3,4-b]indole-5-carboxamide] yielded a concentration for half-maximal inhibition (IC50) (class symbols) of 0.1 to 10 µM.
Compound `C[C@H](NC(=O)c1ccc2c(c1)c1cn(C)nc1n2-c1ccc(C(F)(F)F)cc1)C1CNC1` [Example C144, N-[(1S)-1-(azetidin-3-yl)ethyl]-2-methyl-8-[4-(trifluoromethyl)phenyl]-2H,8H-pyrazolo[3,4-b]indole-5-carboxamidetrifluoroacetate] came in with an IC50 (class symbols) of 0.1 to 10 µM.
Still for that read-out and setting: the same measure for `Cn1cc2c3cc(C(=O)N4CC[C@@H](O)C4)ccc3n(-c3ccc(C(F)(F)F)cn3)c2n1` [Example C152, (3R)-1-{2-methyl-8-[5-(trifluoromethyl)pyridin-2-yl]-2H,8H-pyrazolo[3,4-b]indole-5-carbonyl}pyrrolidin-3-ol]: above 10 µM.
On to `Cn1cc2c(n1)c1cc(S(=O)(=O)N3C[C@H](O)C[C@H]3c3ccccc3)ccc1n2-c1ccc(C(F)(F)F)cc1` (single isomer, unassigned) [Example C46], for which the IC50 under setting [1] is above 1 µM.
For the compound `Cn1cc2c3cc(C(=O)NC4(CO)CCNCC4)ccc3n(-c3ccc(C(F)(F)F)cc3)c2n1` [Example C218, N-[4-(hydroxymethyl)piperidin-4-yl]-2-methyl-8-[4-(trifluoromethyl)phenyl]-2H,8H-pyrazolo[3,4-b]indole-5-carboxamide], the IC50 (class symbols) lay in the range of 0.1 to 10 µM.
Regarding `CCN1CCC(NC(=O)c2ccc3c(c2)c2cn(C)nc2n3-c2ccc(C(F)(F)F)cc2)CC1` [Example C136, N-(1-ethylpiperidin-4-yl)-2-methyl-8-[4-(trifluoromethyl)phenyl]-2H,8H-pyrazolo[3,4-b]indole-5-carboxamide trifluoroacetate], the IC50 (class symbols) fell in the range of 0.1 to 10 µM.
For the compound `Cn1cc2c3cc(C(=O)N4CC[C@@H](O)C4)ccc3n(-c3ccc(C(F)(F)F)c(F)c3)c2n1` [Example C171, (3R)-1-{8-[3-fluoro-4-(trifluoromethyl)phenyl]-2-methyl-2H,8H-pyrazolo[3,4-b]indole-5-carbonyl}pyrrolidin-3-ol], the IC50 (class symbols) was 0.1 to 10 µM.
The same measure, in the same setting: for `Cc1snc2c1c1cc(C(=O)N[C@@H](CO)C(C)C)ccc1n2-c1ccc(C(F)(F)F)cc1` [Example C92, N-[(2R)-1-hydroxy-3-methylbutan-2-yl]-3-methyl-8-[4-(trifluoromethyl)phenyl]-8H-[1,2]thiazolo[3,4-b]indole-5-carboxamide] the value was 0.01 to 0.1 µM.
The compound `CCCNS(=O)(=O)c1ccc2c(c1)c1cn(C)nc1n2-c1ccc(C(F)(F)F)cc1` [Example C71, 2-methyl-N-propyl-8-[4-(trifluoromethyl)phenyl]-2H,8H-pyrazolo[3,4-b]indole-5-sulfonamide] showed a half-maximal inhibitory concentration (IC50) (class symbols) of 0.1 to 10 µM.
The compound `Cc1noc(C(CO)NC(=O)c2ccc3c(c2)c2cn(C)nc2n3-c2ccc(C(F)(F)F)cc2)n1` (stereo not drawn) [Example C268, N-[2-hydroxy-1-(3-methyl-1,2,4-oxadiazol-5-yl)ethyl]-2-methyl-8-[4-(trifluoromethyl)phenyl]-2H,8H-pyrazolo[3,4-b]indole-5-carboxamide] showed a concentration for half-maximal inhibition (IC50) (class symbols) of 0.1 to 10 µM.
On the same count and under the same terms, the same measure for `O=C(O)c1ccc2c(c1)c1cnn(C(F)(F)F)c1n2-c1ccc(C(F)(F)F)cc1` [Example C34, 1-(trifluoromethyl)-8-[4-(trifluoromethyl)phenyl]-1H,8H-pyrazolo[3,4-b]indole-5-carboxylic acid]: 0.1 to 10 µM; for `C[C@@H](NC(=O)c1ccc2c(c1)c1cn(C)nc1n2-c1ccc(C(F)(F)F)cc1)c1ccccn1` [Example C107, 2-methyl-N-[(1R)-1-(pyridin-2-yl)ethyl]-8-[4-(trifluoromethyl)phenyl]-2H,8H-pyrazolo[3,4-b]indole-5-carboxamide]: 0.1 to 10 µM; for `Cn1cc2c3cc(C(=O)N=S4(=O)CCC(C)(N)CC4)ccc3n(-c3ccc(C(F)(F)F)cc3)c2n1` (stereo not drawn) [Example C139, N-(4-amino-4-methyl-1-oxo-1lambda6-thian-1-ylidene)-2-methyl-8-[4-(trifluoromethyl)phenyl]-2H,8H-pyrazolo[3,4-b]indole-5-carboxamide]: 0.1 to 10 µM.
Take `Cn1cc2c3cc(C4CC(n5ccnn5)=NO4)ccc3n(-c3ccc(C(F)(F)F)cc3)c2n1` (stereo not drawn) [Example C37, 1-(5-{2-methyl-8-[4-(trifluoromethyl)phenyl]-2H,8H-pyrazolo[3,4-b]indol-5-yl}-4,5-dihydro-1,2-oxazol-3-yl)-1H-1,2,3-triazole]: the IC50 (class symbols) is above 10 µM.
For the compound `CCCn1cc2c3cc(C(=O)N[C@@H](CO)c4ccccn4)ccc3n(-c3ccc(C(F)(F)F)cc3)c2n1` [Example C255, N-[(1R)-2-hydroxy-1-(pyridin-2-yl)ethyl]-2-propyl-8-[4-(trifluoromethyl)phenyl]-2H,8H-pyrazolo[3,4-b]indole-5-carboxamide], under “class symbols”, the IC50 was above 10 µM.
Where the note is “class symbols”, `Cn1cc2c3cc(C(=O)N[C@H](CCO)c4cncs4)ccc3n(-c3ccc(C(F)(F)F)cc3)c2n1` (single isomer, unassigned) [Example C163] had an IC50 of 0.1 to 10 µM.
As to `Cn1cc2c(n1)c1cc(S(=O)(=O)N3C[C@@H](O)C[C@H]3c3ccccc3)ccc1n2-c1ccc(C(F)(F)F)cc1` (single isomer, unassigned) [Example C47], the IC50 under setting [1] was above 10 µM.
In the case of `Cn1cc2c3cc(C4CC(n5nccn5)=NO4)ccc3n(-c3ccc(C(F)(F)F)cc3)c2n1` (stereo not drawn) [Example C38, 2-(5-{2-methyl-8-[4-(trifluoromethyl)phenyl]-2H,8H-pyrazolo[3,4-b]indol-5-yl}-4,5-dihydro-1,2-oxazol-3-yl)-2H-1,2,3-triazole], the IC50 (class symbols) is above 10 µM.
`CNc1ccc2c(c1)c1cn(C)nc1n2-c1ccc(C(F)(F)F)cc1` [Example C32, N,2-dimethyl-8-[4-(trifluoromethyl)phenyl]-2H,8H-pyrazolo[3,4-b]indol-5-amine] yielded an IC50 (class symbols) of 0.1 to 10 µM.
